Data taken from the supplement of paper PMC4932681.

Assays:
T-47D [1] = experiment: drug sensitivity score (DSS) (DSS (dimensionless)); higher = more sensitive; extreme values may be limits of the assay; settings: 72 h
Method in brief: (§1)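 Breast cancer cell lines and their resistant derivatives were seeded into 384-well plates containing library drugs at five concentrations across a 10 000-fold range, with resistant lines kept in medium with 1 μM of the selecting drug. After 72 h at 37 °C, CellTiter-Glo viability was read on a PHERAstar and normalised to vehicle-only and positive controls. Logistic dose–response fits in the Breeze pipeline gave drug sensitivity score, relative IC50 (curve midpoint) and top-dose inhibition.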

MCF-7 [2] = experiment: as above; settings: 72 h
Method in brief: as §1

BT-474 Tam2 [3] = experiment: as above; settings: 4-OH-tamoxifen in medium 1 µM; 72 h
Method in brief: as §1

ZR-75-1 Tam1 [4] = experiment: as above; settings: 4-OH-tamoxifen in medium 1 µM; 72 h
Method in brief: as §1

ZR-75-1 Tam2 [5] = experiment: as above; settings: 4-OH-tamoxifen in medium 1 µM; 72 h
Method in brief: as §1

MCF-7 Tam1 = experiment: as above; settings: 4-OH-tamoxifen in medium 1 µM; 72 h
Method in brief: as §1

T-47D Tam2 [6] = experiment: as above; settings: 4-OH-tamoxifen in medium 1 µM; 72 h
Method in brief: as §1

T-47D Tam1 [7] = experiment: as above; settings: 4-OH-tamoxifen in medium 1 µM; 72 h
Method in brief: as §1

BT-474 [8] = experiment: as above; settings: 72 h
Method in brief: as §1

ZR-75-1 [9] = experiment: as above; settings: 72 h
Method in brief: as §1

BT-474 Tam1 [10] = experiment: as above; settings: 4-OH-tamoxifen in medium 1 µM; 72 h
Method in brief: as §1

T-47D [11] = experiment: relative IC50 (midpoint of fitted logistic curve, plateau may be below 50% inhibition; CellTiter-Glo viability); higher = less potent; settings: 72 h
Method in brief: as §1

MCF-7 [12] = experiment: as above; settings: 72 h
Method in brief: as §1

BT-474 Tam2 [13] = experiment: as above; settings: 4-OH-tamoxifen in medium 1 µM; 72 h
Method in brief: as §1

ZR-75-1 Tam1 [14] = experiment: as above; settings: 4-OH-tamoxifen in medium 1 µM; 72 h
Method in brief: as §1

ZR-75-1 Tam2 [15] = experiment: as above; settings: 4-OH-tamoxifen in medium 1 µM; 72 h
Method in brief: as §1

T-47D Tam2 [16] = experiment: as above; settings: 4-OH-tamoxifen in medium 1 µM; 72 h
Method in brief: as §1

T-47D Tam1 [17] = experiment: as above; settings: 4-OH-tamoxifen in medium 1 µM; 72 h
Method in brief: as §1

BT-474 [18] = experiment: as above; settings: 72 h
Method in brief: as §1

ZR-75-1 [19] = experiment: as above; settings: 72 h
Method in brief: as §1

BT-474 Tam1 [20] = experiment: as above; settings: 4-OH-tamoxifen in medium 1 µM; 72 h
Method in brief: as §1

CCCCCCCCc1ccc(CCC(N)(CO)CO)cc1 [Fingolimod]
drug sensitivity score (T-47D [1]; 4-OH-tamoxifen in medium 0 µM): 2.91
drug sensitivity score (T-47D [1]; 4-OH-tamoxifen in medium 1 µM): 4.24
drug sensitivity score (MCF-7 [2]; 4-OH-tamoxifen in medium 0 µM): 5.74
drug sensitivity score (MCF-7 [2]; 4-OH-tamoxifen in medium 1 µM): 3.17
drug sensitivity score (BT-474 Tam2 [3]): 4.99
drug sensitivity score (ZR-75-1 Tam1 [4]): 2.18
drug sensitivity score (ZR-75-1 Tam2 [5]): 2.69
drug sensitivity score (MCF-7 Tam1): 0.0112
drug sensitivity score (T-47D Tam2 [6]): 2.59
drug sensitivity score (T-47D Tam1 [7]): 2.83
drug sensitivity score (BT-474 [8]; 4-OH-tamoxifen in medium 0 µM): 4.44
drug sensitivity score (BT-474 [8]; 4-OH-tamoxifen in medium 1 µM): 4.21
drug sensitivity score (ZR-75-1 [9]; 4-OH-tamoxifen in medium 0 µM): 1.58
drug sensitivity score (ZR-75-1 [9]; 4-OH-tamoxifen in medium 1 µM): 2.36
drug sensitivity score (BT-474 Tam1 [10]): 4.13
relative IC50 (T-47D [11]; 4-OH-tamoxifen in medium 0 µM): 4090 nM
relative IC50 (T-47D [11]; 4-OH-tamoxifen in medium 1 µM): 3840 nM
relative IC50 (MCF-7 [12]; 4-OH-tamoxifen in medium 0 µM): 2890 nM
relative IC50 (MCF-7 [12]; 4-OH-tamoxifen in medium 1 µM): 3910 nM
relative IC50 (BT-474 Tam2 [13]): 3390 nM
relative IC50 (ZR-75-1 Tam1 [14]): 3370 nM
relative IC50 (ZR-75-1 Tam2 [15]): 3490 nM
relative IC50 (T-47D Tam2 [16]): 3860 nM
relative IC50 (T-47D Tam1 [17]): 3780 nM
relative IC50 (BT-474 [18]; 4-OH-tamoxifen in medium 0 µM): 3770 nM
relative IC50 (BT-474 [18]; 4-OH-tamoxifen in medium 1 µM): 4050 nM
relative IC50 (ZR-75-1 [19]; 4-OH-tamoxifen in medium 0 µM): 3930 nM
relative IC50 (ZR-75-1 [19]; 4-OH-tamoxifen in medium 1 µM): 3710 nM
relative IC50 (BT-474 Tam1 [20]): 4130 nM

O=C(NC[C@H](O)CO)c1ccncc1Nc1ccc(I)cc1F
drug sensitivity score (T-47D [1]; 4-OH-tamoxifen in medium 0 µM): 0
drug sensitivity score (T-47D [1]; 4-OH-tamoxifen in medium 1 µM): 0
drug sensitivity score (MCF-7 [2]; 4-OH-tamoxifen in medium 0 µM): 1.94
drug sensitivity score (MCF-7 [2]; 4-OH-tamoxifen in medium 1 µM): 1.22
drug sensitivity score (BT-474 Tam2 [3]): 0
drug sensitivity score (ZR-75-1 Tam1 [4]): 0
drug sensitivity score (ZR-75-1 Tam2 [5]): 0
drug sensitivity score (MCF-7 Tam1): 0.0844
drug sensitivity score (T-47D Tam2 [6]): 2.47
drug sensitivity score (T-47D Tam1 [7]): 0
drug sensitivity score (BT-474 [8]; 4-OH-tamoxifen in medium 0 µM): 0.702
drug sensitivity score (BT-474 [8]; 4-OH-tamoxifen in medium 1 µM): 3.92
drug sensitivity score (ZR-75-1 [9]; 4-OH-tamoxifen in medium 0 µM): 0
drug sensitivity score (ZR-75-1 [9]; 4-OH-tamoxifen in medium 1 µM): 0
drug sensitivity score (BT-474 Tam1 [10]): 0.041
relative IC50 (T-47D [11]; 4-OH-tamoxifen in medium 1 µM): > 10000 nM
relative IC50 (MCF-7 [12]; 4-OH-tamoxifen in medium 0 µM): 2770 nM
relative IC50 (BT-474 Tam2 [13]): > 10000 nM
relative IC50 (ZR-75-1 Tam1 [14]): > 10000 nM
relative IC50 (ZR-75-1 Tam2 [15]): > 10000 nM
relative IC50 (T-47D Tam2 [16]): 1940 nM
relative IC50 (T-47D Tam1 [17]): > 10000 nM
relative IC50 (BT-474 [18]; 4-OH-tamoxifen in medium 1 µM): 1850 nM
relative IC50 (ZR-75-1 [19]; 4-OH-tamoxifen in medium 0 µM): > 10000 nM

O=C(CCCCCCC(=O)Nc1ccccc1)NO [Vorinostat]
drug sensitivity score (T-47D [1]; 4-OH-tamoxifen in medium 0 µM): 5.73
drug sensitivity score (T-47D [1]; 4-OH-tamoxifen in medium 1 µM): 4.3
drug sensitivity score (MCF-7 [2]; 4-OH-tamoxifen in medium 0 µM): 8.23
drug sensitivity score (MCF-7 [2]; 4-OH-tamoxifen in medium 1 µM): 8.2
drug sensitivity score (BT-474 Tam2 [3]): 7.23
drug sensitivity score (ZR-75-1 Tam1 [4]): 3.29
drug sensitivity score (ZR-75-1 Tam2 [5]): 2.51
drug sensitivity score (MCF-7 Tam1): 0.897
drug sensitivity score (T-47D Tam2 [6]): 2.19
drug sensitivity score (T-47D Tam1 [7]): 5.24
drug sensitivity score (BT-474 [8]; 4-OH-tamoxifen in medium 0 µM): 5.53
drug sensitivity score (BT-474 [8]; 4-OH-tamoxifen in medium 1 µM): 10.5
drug sensitivity score (ZR-75-1 [9]; 4-OH-tamoxifen in medium 0 µM): 1.99
drug sensitivity score (ZR-75-1 [9]; 4-OH-tamoxifen in medium 1 µM): 1.27
drug sensitivity score (BT-474 Tam1 [10]): 6.36
relative IC50 (T-47D [11]; 4-OH-tamoxifen in medium 0 µM): 2630 nM
relative IC50 (T-47D [11]; 4-OH-tamoxifen in medium 1 µM): 3670 nM
relative IC50 (MCF-7 [12]; 4-OH-tamoxifen in medium 0 µM): 1430 nM
relative IC50 (MCF-7 [12]; 4-OH-tamoxifen in medium 1 µM): 1330 nM
relative IC50 (BT-474 Tam2 [13]): 1890 nM
relative IC50 (ZR-75-1 Tam1 [14]): 1650 nM
relative IC50 (ZR-75-1 Tam2 [15]): 2270 nM
relative IC50 (T-47D Tam2 [16]): 3060 nM
relative IC50 (T-47D Tam1 [17]): 1650 nM
relative IC50 (BT-474 [18]; 4-OH-tamoxifen in medium 0 µM): 2310 nM
relative IC50 (BT-474 [18]; 4-OH-tamoxifen in medium 1 µM): 1090 nM
relative IC50 (ZR-75-1 [19]; 4-OH-tamoxifen in medium 0 µM): 2900 nM
relative IC50 (ZR-75-1 [19]; 4-OH-tamoxifen in medium 1 µM): 3660 nM
relative IC50 (BT-474 Tam1 [20]): 2430 nM

C=CC(=O)Nc1cc2c(Nc3ccc(F)c(Cl)c3)ncnc2cc1OCCCN1CCOCC1 [Canertinib]
drug sensitivity score (T-47D [1]; 4-OH-tamoxifen in medium 0 µM): 3.92
drug sensitivity score (T-47D [1]; 4-OH-tamoxifen in medium 1 µM): 0.761
drug sensitivity score (MCF-7 [2]; 4-OH-tamoxifen in medium 0 µM): 6.68
drug sensitivity score (MCF-7 [2]; 4-OH-tamoxifen in medium 1 µM): 6.46
drug sensitivity score (BT-474 Tam2 [3]): 31.6
drug sensitivity score (ZR-75-1 Tam1 [4]): 2.99
drug sensitivity score (ZR-75-1 Tam2 [5]): 2.58
drug sensitivity score (MCF-7 Tam1): 1.4
drug sensitivity score (T-47D Tam2 [6]): 5.77
drug sensitivity score (T-47D Tam1 [7]): 6.06
drug sensitivity score (BT-474 [8]; 4-OH-tamoxifen in medium 0 µM): 24.8
drug sensitivity score (BT-474 [8]; 4-OH-tamoxifen in medium 1 µM): 33.6
drug sensitivity score (ZR-75-1 [9]; 4-OH-tamoxifen in medium 0 µM): 3
drug sensitivity score (ZR-75-1 [9]; 4-OH-tamoxifen in medium 1 µM): 3.11
drug sensitivity score (BT-474 Tam1 [10]): 34.2
relative IC50 (T-47D [11]; 4-OH-tamoxifen in medium 0 µM): 1230 nM
relative IC50 (MCF-7 [12]; 4-OH-tamoxifen in medium 0 µM): 1290 nM
relative IC50 (MCF-7 [12]; 4-OH-tamoxifen in medium 1 µM): 1640 nM
relative IC50 (BT-474 Tam2 [13]): 18.6 nM
relative IC50 (ZR-75-1 Tam1 [14]): 1740 nM
relative IC50 (ZR-75-1 Tam2 [15]): 2780 nM
relative IC50 (T-47D Tam2 [16]): 1580 nM
relative IC50 (T-47D Tam1 [17]): 513 nM
relative IC50 (BT-474 [18]; 4-OH-tamoxifen in medium 0 µM): 31.3 nM
relative IC50 (BT-474 [18]; 4-OH-tamoxifen in medium 1 µM): 12.4 nM
relative IC50 (ZR-75-1 [19]; 4-OH-tamoxifen in medium 0 µM): 2090 nM
relative IC50 (ZR-75-1 [19]; 4-OH-tamoxifen in medium 1 µM): 1510 nM
relative IC50 (BT-474 Tam1 [20]): 11.7 nM
